Measurements from patent US20250163047A1, “HETEROCYCLIC COMPOUNDS, COMPOSITIONS THEREOF, AND METHODS OF TREATMENT THEREWITH” (BeiGene, Ltd., priority 2022, published 2025).

Experiments:
Cbl-b (aa36-427) = target: T1, Cbl-b (aa36-427) (Homo sapiens, UniProt Q13191); assay: Co-expressed Cbl-b with BirA biochemical assay (CBLB/E2-Ub binding, HTRF); details: 0.6 nM Cbl-b co-expressed with BirA, HTRF; read-out: co-express CBLB/E2-Ub-binding assay IC50
T1 construct: Cbl-b (aa36-427, in-house); made in house
T1 sequence (Q13191 36-427): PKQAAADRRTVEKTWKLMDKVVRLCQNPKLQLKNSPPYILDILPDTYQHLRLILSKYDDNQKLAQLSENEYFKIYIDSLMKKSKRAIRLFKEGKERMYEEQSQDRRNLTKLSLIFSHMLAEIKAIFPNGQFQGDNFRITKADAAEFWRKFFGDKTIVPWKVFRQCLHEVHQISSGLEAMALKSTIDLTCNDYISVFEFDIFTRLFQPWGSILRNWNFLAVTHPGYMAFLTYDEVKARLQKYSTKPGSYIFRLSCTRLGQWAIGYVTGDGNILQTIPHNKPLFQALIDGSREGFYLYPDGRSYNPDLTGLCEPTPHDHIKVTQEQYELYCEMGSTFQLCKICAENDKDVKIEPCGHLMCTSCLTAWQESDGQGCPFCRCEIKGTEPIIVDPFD
Excerpt: (§1) The assay in the absence of a Cbl-b/Cbl inhibitor, where phosphorylation of Cbl-b/Cbl by the Src kinase allows UbcH5B-Ub to bind to Cbl-b/Cbl and brings the Bodipy-Fluorescein tagged ubiquitin in proximity to the streptavidin-terbium bound to the N-terminal biotinylated Avi-tagged Cbl-b/Cbl. […] The lack of a FRET signal indicates Cbl-b/Cbl is inhibited by the Cbl-b/Cbl inhibitor.

Cbl (aa49-434) = target: T2, Cbl (aa49-434) (Homo sapiens, UniProt P22681); assay: Co-expressed Cbl with BirA biochemical assay (CBL/E2-Ub binding, HTRF); details: 0.6 nM Cbl co-expressed with BirA, read-out: co-express CBL/E2-Ub-binding assay IC50
T2 construct: Cbl (aa49-434, in-house); made in house
T2 sequence (P22681 49-434): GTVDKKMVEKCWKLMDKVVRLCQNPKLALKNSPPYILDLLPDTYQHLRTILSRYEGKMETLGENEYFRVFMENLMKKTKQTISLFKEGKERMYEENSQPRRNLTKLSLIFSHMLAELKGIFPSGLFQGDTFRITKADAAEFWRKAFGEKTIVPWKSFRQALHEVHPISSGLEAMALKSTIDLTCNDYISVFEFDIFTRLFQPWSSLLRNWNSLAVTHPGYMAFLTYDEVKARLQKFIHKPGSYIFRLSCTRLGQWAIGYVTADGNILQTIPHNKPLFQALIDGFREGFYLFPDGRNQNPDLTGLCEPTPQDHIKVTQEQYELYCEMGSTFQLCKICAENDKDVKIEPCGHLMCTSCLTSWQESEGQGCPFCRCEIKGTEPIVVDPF
Excerpt: as §1

| SMILES | IC50 (Cbl-b (aa36-427)) [nM] | IC50 (Cbl (aa49-434)) [nM] |
| --- | --- | --- |
| Cn1cnnc1[C@]1(c2cncc(NC(=O)c3cc(CNC4(C)CC4)cn4c(Cl)cnc34)c2)C[C@H](C)C1 [Compound A73, 3-chloro-N-(5-((1s, 3s)-3-methyl-1-(4-methyl-4H-1,2,4-triazol-3-yl)cyclobutyl)pyridin-3-yl)-6-(((1-methylcyclopropyl)amino)methyl)imidazo[1,2-a]pyridine-8-carboxamide] | 1.2 | 2.8 |
| Cn1cnnc1[C@]1(c2cccc(NC(=O)c3cc(CNCC4CCCC4)cn4ccnc34)c2)C[C@H](CC#N)C1 [Compound A26, N-(3-((1s, 3s)-3-(cyanomethyl)-1-(4-methyl-4H-1,2,4-triazol-3-yl)cyclobutyl)phenyl)-6-(((cyclopentylmethyl)amino)methyl)imidazo[1,2-a]pyridine-8-carboxamide] | 1.3 | 6.3 |
| C[C@H](NCc1cc(C(=O)Nc2cccc([C@]3(c4nncn4C)C[C@@H](C)C3)c2)c2nccn2c1)C1CCC1 [Compound A70, 6-((((S)-1-cyclobutylethyl)amino)methyl)-N-(3-((1s,3R)-3-methyl-1-(4-methyl-4H-1,2,4-triazol-3-yl)cyclobutyl)phenyl)imidazo[1,2-a]pyridine-8-carboxamide] | 1.1 | 4.1 |
| CCn1cnnc1[C@]1(c2cccc(NC(=O)c3cc(CNC4(C)CC4)cn4ccnc34)c2)C[C@H](C)C1 [Compound A85, N-(3-((1s, 3s)-1-(4-ethyl-4H-1,2,4-triazol-3-yl)-3-methylcyclobutyl)phenyl)-6-(((1-methylcyclopropyl)amino)methyl)imidazo[1,2-a]pyridine-8-carboxamide] | 3.4 | 26 |
| Cn1cnnc1C[C@]1(c2cccc(NC(=O)c3cc(CNCC4(C)CCCC4)cn4c(Cl)cnc34)c2)C[C@H](C#N)C1 [Compound A29, 3-chloro-N-(3-((1r, 3r)-3-cyano-1-((4-methyl-4H-1,2,4-triazol-3-yl)methyl)cyclobutyl)phenyl)-6-((((1-methylcyclopentyl)methyl)amino)methyl)imidazo[1,2-a]pyridine-8-carboxamide] | 1.3 | 2.3 |
| Cn1cnnc1[C@]1(c2cncc(NC(=O)c3cc(CNC4(C)CC4)cn4ncnc34)c2)C[C@H](C)C1 [Compound A88, N-(5-((1s, 3s)-3-methyl-1-(4-methyl-4H-1,2,4-triazol-3-yl)cyclobutyl)pyridin-3-yl)-6-(((1-methylcyclopropyl)amino)methyl)-[1,2,4]triazolo[1,5-a]pyridine-8-carboxamide] | 4.4 | 20 |

Results, then the compound that gave them:

| IC50 (Cbl-b (aa36-427)) [nM] | IC50 (Cbl (aa49-434)) [nM] | SMILES |
| --- | --- | --- |
| 3.1 | 9.7 | Cn1cnnc1[C@]1(c2cncc(NC(=O)c3cc(CNCC4CCC4)c4[nH]cc(Cl)c4n3)c2)C[C@H](C)C1 [Compound B53, 3-chloro-7-(((cyclobutylmethyl)amino)methyl)-N-(5-((1s, 3s)-3-methyl-1-(4-methyl-4H-1,2,4-triazol-3-yl)cyclobutyl)pyridin-3-yl)-1H-pyrrolo[3,2-b]pyridine-5-carboxamide] |
| 1.2 | 8.4 | Cn1cnnc1[C@]1(c2cccc(NC(=O)c3cc(CNC4(C)CCC4)c4[nH]ccc4n3)c2)C[C@H](CC#N)C1 [Compound B27, N-(3-((1s, 3s)-3-(cyanomethyl)-1-(4-methyl-4H-1,2,4-triazol-3-yl)cyclobutyl)phenyl)-7-(((1-methylcyclobutyl)amino)methyl)-1H-pyrrolo[3,2-b]pyridine-5-carboxamide] |
| 3.2 | 14 | Cn1cnnc1[C@]1(c2cncc(NC(=O)c3cc(CNC4(C)CCC4)c4[nH]cc(F)c4n3)c2)C[C@H](C)C1 [Compound B49, 3-fluoro-N-(5-((1s, 3s)-3-methyl-1-(4-methyl-4H-1,2,4-triazol-3-yl)cyclobutyl)pyridin-3-yl)-7-(((1-methylcyclobutyl)amino)methyl)-1H-pyrrolo[3,2-b]pyridine-5-carboxamide] |
| 23.9 | 51.6 | C[C@H]1CCCN(Cc2cc(C(=O)Nc3cccc(C4(Cc5nncn5C)COC4)c3)nn3cccc23)C1 [Compound B12, N-(3-{3-[(4-methyl-1,2,4-triazol-3-yl)methyl]oxetan-3-yl}phenyl)-4-{[(3S)-3-methylpiperidin-1-yl]methyl}pyrrolo[1,2-b]pyridazine-2-carboxamide] |
| 0.8 | 2.9 | C[C@H](NCc1cc(C(=O)Nc2cccc([C@]3(c4nncn4C)C[C@@H](CC#N)C3)c2)nc2c1CCC2(C)C)C1CC1 [Compound C39, N-(3-((1s,3R)-3-(cyanomethyl)-1-(4-methyl-4H-1,2,4-triazol-3-yl)cyclobutyl)phenyl)-4-((((S)-1-cyclopropylethyl)amino)methyl)-7,7-dimethyl-6,7-dihydro-5H-cyclopenta[b]pyridine-2-carboxamide] |
| 1.3 | 5.1 | C[C@H](NCc1cc(C(=O)Nc2cccc([C@]3(c4nncn4C)C[C@@H](C)C3)c2)nc2c1OCC2(C)C)C1CCCC1 [Compound C34, 7-((((S)-1-cyclopentylethyl)amino)methyl)-3,3-dimethyl-N-(3-((1s,3R)-3-methyl-1-(4-methyl-4H-1,2,4-triazol-3-yl)cyclobutyl)phenyl)-2,3-dihydrofuro[3,2-b]pyridine-5-carboxamide] |
| 1.3 | 10.1 | C[C@H](NCc1cc(C(=O)Nc2cccc([C@]3(c4nncn4C)C[C@@H](CC#N)C3)c2)nc2c1CCC2(F)F)C1CC1 [Compound C43, N-(3-((1s,3R)-3-(cyanomethyl)-1-(4-methyl-4H-1,2,4-triazol-3-yl)cyclobutyl)phenyl)-4-((((S)-1-cyclopropylethyl)amino)methyl)-7,7-difluoro-6,7-dihydro-5H-cyclopenta[b]pyridine-2-carboxamide] |
| 2.56 | 19.7 | C[C@H]1CCCN(Cc2cc(C(=O)Nc3cccc(C4(c5nncn5C)CC(CC#N)C4)c3)nc3c2CCC3(C)C)C1 (stereo partly drawn) [Compound C7, (S)—N-(3-(3-(cyanomethyl)-1-(4-methyl-4H-1,2,4-triazol-3-yl)cyclobutyl)phenyl)-7,7-dimethyl-4-((3-methylpiperidin-1-yl)methyl)-6,7-dihydro-5H-cyclopenta[b]pyridine-2-carboxamide] |
| 0.8 | 8.8 | Cn1cnnc1[C@]1(c2cccc(NC(=O)c3cc(CNC4(C)CCC4)c4ccsc4n3)c2)C[C@H](CC#N)C1 [Compound B39, 4-{[(1-methylcyclobutyl)amino]methyl}-N-{3-[(1s, 3s)-3-(cyanomethyl)-1-(4-methyl-1,2,4-triazol-3-yl)cyclobutyl]phenyl}thieno[2,3-b]pyridine-6-carboxamide] |
| 0.8 | 2.3 | Cn1cnnc1[C@]1(c2cccc(NC(=O)c3cc(CNCC4CCC4)c4[nH]cc(F)c4n3)c2)C[C@H](C)C1 [Compound B36, 7-(((cyclobutylmethyl)amino)methyl)-3-fluoro-N-(3-((1s, 3s)-3-methyl-1-(4-methyl-4H-1,2,4-triazol-3-yl)cyclobutyl)phenyl)-1H-pyrrolo[3,2-b]pyridine-5-carboxamide] |
| 1.4 | 13 | Cn1cnnc1[C@]1(c2cncc(NC(=O)c3cc(CNC4(C)CC4)c4ccsc4n3)c2)C[C@H](C)C1 [Compound B51, N-(5-((1s, 3s)-3-methyl-1-(4-methyl-4H-1,2,4-triazol-3-yl)cyclobutyl)pyridin-3-yl)-4-(((1-methylcyclopropyl)amino)methyl)thieno[2,3-b]pyridine-6-carboxamide] |
| 0.8 | 2.2 | C[C@H](NCc1cc(C(=O)Nc2cccc([C@]3(c4nncn4C)C[C@@H](CC#N)C3)c2)nc2cc[nH]c12)C1CC1 [Compound B28, N-(3-((1s,3R)-3-(cyanomethyl)-1-(4-methyl-4H-1,2,4-triazol-3-yl)cyclobutyl)phenyl)-7-((((S)-1-cyclopropylethyl)amino)methyl)-1H-pyrrolo[3,2-b]pyridine-5-carboxamide] |
| 1.7 | 3.2 | C[C@@H]1CN(Cc2cc(C(=O)Nc3cncc([C@]4(c5nncn5C)C[C@@H](C)C4)c3)nc3c2NCC3(C)C)CC[C@@H]1F [Compound C58, 7-(((3R,4S)-4-fluoro-3-methylpiperidin-1-yl)methyl)-3,3-dimethyl-N-(5-((1s,3S)-3-methyl-1-(4-methyl-4H-1,2,4-triazol-3-yl)cyclobutyl)pyridin-3-yl)-2,3-dihydro-1H-pyrrolo[3,2-b]pyridine-5-carboxamide] |
| 2.2 | 7.5 | Cc1c[nH]c2c(CNCC(C)C)cc(C(=O)Nc3cncc([C@]4(c5nncn5C)C[C@@H](C)C4)c3)nc12 [Compound B21, 7-((isobutylamino)methyl)-3-methyl-N-(5-((1s, 3s)-3-methyl-1-(4-methyl-4H-1,2,4-triazol-3-yl)cyclobutyl)pyridin-3-yl)-1H-pyrrolo[3,2-b]pyridine-5-carboxamide] |
